# Source: US10513523B2, “Imidazopyrazines and pyrazolopyrimidines and their use as AMPA receptor modulators” (Janssen Pharmaceutica NV, priority 2015, dated 2019)
# Molecular target: GluA1o-γ8 (GRIA1o-CACNG8 fusion construct; TARP γ8 dependent AMPA receptor) (Homo sapiens (Human), UniProt P42261+Q8WXS5)
# Assay: Calcium flux assay (FLIPR), inhibition of glutamate response of GluA1o-γ8 channel
# Type: cell-based
# Settings: HEK293 cells stably expressing GRIA1o-CACNG8 fusion; 15 μM glutamate; pIC50 = negative log of IC50 in molar; read-out: GluR1-γ8 (pIC50) (converted)
# Procedure, shortened: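 Potency is the midpoint of a four-parameter logistic fit to control-normalized FLIPR calcium responses elicited by 15 μM glutamate. Stable HEK293 cells carried a fused GluA1o-γ8 construct and were preincubated with compound and calcium dye in pH 7.4 HEPES buffer.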
# GluA1o-γ8 (GRIA1o-CACNG8 fusion construct; TARP γ8 dependent AMPA receptor), sequence (P42261 other isoform, or with tags, fused parts or gaps): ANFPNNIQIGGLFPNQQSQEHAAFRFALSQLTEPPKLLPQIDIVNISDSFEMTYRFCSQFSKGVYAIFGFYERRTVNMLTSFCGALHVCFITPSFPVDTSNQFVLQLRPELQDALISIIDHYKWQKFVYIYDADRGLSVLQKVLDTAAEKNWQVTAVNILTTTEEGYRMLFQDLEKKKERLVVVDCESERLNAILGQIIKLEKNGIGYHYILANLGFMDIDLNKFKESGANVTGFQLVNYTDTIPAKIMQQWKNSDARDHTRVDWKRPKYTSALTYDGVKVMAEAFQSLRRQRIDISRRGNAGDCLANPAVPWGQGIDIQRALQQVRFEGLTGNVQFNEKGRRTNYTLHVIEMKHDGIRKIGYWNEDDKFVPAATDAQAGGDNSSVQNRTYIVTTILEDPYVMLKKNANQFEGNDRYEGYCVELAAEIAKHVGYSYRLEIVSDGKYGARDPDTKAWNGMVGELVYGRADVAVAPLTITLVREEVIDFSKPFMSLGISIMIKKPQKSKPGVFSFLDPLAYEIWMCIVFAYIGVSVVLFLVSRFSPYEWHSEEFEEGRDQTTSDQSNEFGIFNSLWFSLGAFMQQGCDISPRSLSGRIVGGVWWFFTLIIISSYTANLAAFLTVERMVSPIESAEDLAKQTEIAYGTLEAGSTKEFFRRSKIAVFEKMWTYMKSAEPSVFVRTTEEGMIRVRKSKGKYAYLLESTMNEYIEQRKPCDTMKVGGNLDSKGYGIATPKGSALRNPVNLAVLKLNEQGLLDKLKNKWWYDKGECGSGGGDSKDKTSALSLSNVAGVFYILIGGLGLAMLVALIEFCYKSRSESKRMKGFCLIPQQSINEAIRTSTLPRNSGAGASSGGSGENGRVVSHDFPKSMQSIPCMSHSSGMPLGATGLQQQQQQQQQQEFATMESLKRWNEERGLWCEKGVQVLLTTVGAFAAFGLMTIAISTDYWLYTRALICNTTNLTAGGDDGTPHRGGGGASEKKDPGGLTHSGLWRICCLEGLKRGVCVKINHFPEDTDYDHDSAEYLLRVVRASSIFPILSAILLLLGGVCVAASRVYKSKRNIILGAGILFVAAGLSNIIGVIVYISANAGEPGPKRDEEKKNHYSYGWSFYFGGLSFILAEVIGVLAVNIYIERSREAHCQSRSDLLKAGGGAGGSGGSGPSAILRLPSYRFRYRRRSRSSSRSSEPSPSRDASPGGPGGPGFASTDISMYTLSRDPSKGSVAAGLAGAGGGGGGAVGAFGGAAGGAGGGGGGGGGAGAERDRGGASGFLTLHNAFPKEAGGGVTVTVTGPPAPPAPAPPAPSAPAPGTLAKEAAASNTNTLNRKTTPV
row,SMILES,IC50 [nM]
1,"O=C1Cc2cc(-c3c(-c4ccc(F)cc4)nc4c(N5CCC(O)C5)nccn34)ccc2N1 (centres unmarked) [Example 41, 5-[2-(4-Fluorophenyl)-8-(3-hydroxypyrrolidin-1-yl)imidazo[1,2-a]pyrazin-3-yl]indolin-2-one]",0.631
2,"O=C1Nc2ccc(-c3c(-c4ccc(F)cc4)nc4c(N5CCOCC5)nccn34)cc2CO1 [Example 124, 6-[2-(4-fluorophenyl)-8-morpholino-imidazo[1,2-a]pyrazin-3-yl]-1,4-dihydro-3,1-benzoxazin-2-one]",7.94
3,"O=C1Cc2cc(-c3c(-c4ccc(F)cc4)nc4c(N5CCOCC5)ncc(F)n34)ccc2N1 [Example 161, 5-(5-Fluoro-2-(4-fluorophenyl)-8-morpholinoimidazo[1,2-a]pyrazin-3-yl)indolin-2-one]",6.31
4,"O=c1[nH]c2ccc(-c3c(-c4ccc(F)cc4)nc4c(N5CCOCC5)ncc(Cl)n34)cc2[nH]1 [Example 82, 5-[5-Chloro-2-(4-fluorophenyl)-8-morpholino-imidazo[1,2-a]pyrazin-3-yl]-1,3-dihydrobenzimidazol-2-one]",0.316
5,"O=C1Cc2cc(-c3c(-c4ccc(F)cc4)nc4c(N5CC6(COC6)C5)nccn34)ccc2N1 [Example 24, 5-[2-(4-Fluorophenyl)-8-(6-oxa-2-azaspiro[3.3]heptan-2-yl)imidazo[1,2-a]pyrazin-3-yl]indolin-2-one]",5.01
6,"CC(C)c1nn2cnc(C(F)(F)F)cc2c1-c1ccc2c(c1)CC(=O)N2 [Example 227, 5-[2-Isopropyl-5-(trifluoromethyl)pyrazolo[1,5-c]pyrimidin-3-yl]indolin-2-one]",1580
7,"O=C1CCN(c2nccc3c(-c4ccc5c(c4)CC(=O)N5)c(-c4ccc(F)cc4)nn23)CC1 [Example 174, 5-[2-(4-Fluorophenyl)-7-(4-oxo-1-piperidyl)pyrazolo[1,5-c]pyrimidin-3-yl]indolin-2-one]",0.0794
8,"O=C1Nc2ccc(-c3c(-c4ccc(F)cc4)nc4c(N5CCOCC5)nccn34)cc2C1(F)F [Example 136, 3,3-Difluoro-5-[2-(4-fluorophenyl)-8-morpholino-imidazo[1,2-a]pyrazin-3-yl]indolin-2-one]",398
9,"O=S1(=O)Cc2cc(-c3c(-c4ccc(F)cc4)nc4c(N5CCOCC5)nccn34)ccc2N1 [Example 117, 5-[2-(4-Fluorophenyl)-8-morpholino-imidazo[1,2-a]pyrazin-3-yl]-1,3-dihydro-2,1-benzothiazole 2,2-dioxide]",3.98
10,"O=C1Cc2cc(-c3c(-c4ccccc4)nc4cnc(C(F)(F)F)cn34)ccc2N1 [Example 218, 5-[2-Phenyl-6-(trifluoromethyl)imidazo[1,2-a]pyrazin-3-yl]indolin-2-one]",100
11,"O=C1Cc2cc(-c3c(-c4ccc(F)c(F)c4)nc4c(N5CCOCC5)nccn34)ccc2N1 [Example 35, 5-[2-(3,4-Difluorophenyl)-8-morpholino-imidazo[1,2-a]pyrazin-3-yl]indolin-2-one]",0.501
12,"Oc1ccc(-c2c(-c3ccc(F)cc3)nc3c(N4CCNCC4)nccn23)cc1 [Example 5, 4-[2-(4-Fluorophenyl)-8-piperazin-1-yl-imidazo[1,2-a]pyrazin-3-yl]phenol]",1260
13,"O=C1Cc2cc(-c3c(C4CCCC4)nn4c(N5CC(O)C5)nccc34)ccc2N1 [Example 205, 5-[2-Cyclopentyl-7-(3-hydroxyazetidin-1-yl)pyrazolo[1,5-c]pyrimidin-3-yl]indolin-2-one]",631
14,"CC1C(=O)N(C)CCN1c1nccn2c(-c3ccc4c(c3)CC(=O)N4)c(-c3ccc(F)cc3)nc12 (centres unmarked) [Example 111, 5-(8-(2,4-Dimethyl-3-oxopiperazin-1-yl)-2-(4-fluorophenyl)imidazo[1,2-a]pyrazin-3-yl)indolin-2-one]",1.58
15,"O=C1Cc2cc(-c3c(-c4ccc(F)cc4)nn4c(N5CC(F)(F)C5)nccc34)ccc2N1 [Example 176, 5-[7-(3,3-Difluoroazetidin-1-yl)-2-(4-fluorophenyl)pyrazolo[1,5-c]pyrimidin-3-yl]indolin-2-one]",3.16
16,"O=C1Cc2cc(-c3c(C4CC4)nc4c(N5CCOCC5)nccn34)ccc2N1 [Example 91, 5-(2-Cyclopropyl-8-morpholino-imidazo[1,2-a]pyrazin-3-yl)indolin-2-one]",501
17,"CC(=O)N1CCN(c2nccn3c(-c4ccc5[nH]ncc5c4)c(-c4ccc(F)cc4)nc23)CC1 [Example 13, 1-[4-[2-(4-Fluorophenyl)-3-(1H-indazol-5-yl)imidazo[1,2-a]pyrazin-8-yl]piperazin-1-yl]ethanone]",0.2
18,"Oc1ccc(-c2c(-c3ccc(F)cc3)nc3c(N4CCCC(F)(F)C4)nccn23)cc1 [Example 29, 4-[8-(3,3-Difluoro-1-piperidyl)-2-(4-fluorophenyl)imidazo[1,2-a]pyrazin-3-yl]phenol]",31.6
19,"O=C(Nc1ccccc1)c1nc2c(N3CCOCC3)nccn2c1-c1ccc(O)cc1 [Example 138, 3-(4-Hydroxyphenyl)-8-morpholino-N-phenyl-imidazo[1,2-a]pyrazine-2-carboxamide]",20

row,SMILES,IC50 [nM]
1,"O=c1[nH]c2ccc(-c3c(Cc4ccccc4)nc4c(N5CCOCC5)nccn34)cc2[nH]1 [Example 22, 5-(2-Benzyl-8-morpholino-imidazo[1,2-a]pyrazin-3-yl)-1,3-dihydrobenzimidazol-2-one]",1.58
2,"CNc1nccn2c(-c3ccc4c(c3)CC(=O)N4)c(-c3ccc(F)cc3)nc12 [Example 167, 5-[2-(4-Fluorophenyl)-8-(methylamino)imidazo[1,2-a]pyrazin-3-yl]indolin-2-one]",25.1
3,"COC1CCN(c2nccn3c(-c4ccc5c(c4)CC(=O)N5)c(-c4ccc(F)cc4)nc23)CC1 [Example 72, 5-[2-(4-Fluorophenyl)-8-(4-methoxy-1-piperidyl)imidazo[1,2-a]pyrazin-3-yl]indolin-2-one]",0.126
4,"CC(C)(C)c1nn2cnc(C(F)(F)F)cc2c1-c1ccc2c(c1)CC(=O)N2 [Example 225, 5-[2-tert-Butyl-5-(trifluoromethyl)pyrazolo[1,5-c]pyrimidin-3-yl]indolin-2-one]",501
5,"O=C1Cc2cc(-c3c(-c4ccccc4)nc4c(N5CCC(F)CC5)nccn34)ccc2N1 [Example 75, 5-[8-(4-Fluoro-1-piperidyl)-2-phenyl-imidazo[1,2-a]pyrazin-3-yl]indolin-2-one]",0.0631
6,"CC(=O)N[C@@H]1CCN(c2nccn3c(-c4ccc5c(c4)CC(=O)N5)c(-c4ccc(F)cc4)nc23)C1 (single isomer, unassigned) [Example 150]",3.16
7,"CC(C)(C)c1nc2c(N3CCC(=O)CC3)nccn2c1-c1ccc2c(c1)CC(=O)N2 [Example 220, 5-[2-tert-Butyl-8-(4-oxo-1-piperidyl)imidazo[1,2-a]pyrazin-3-yl]indolin-2-one]",63.1
8,"O=C(c1ccc(F)cc1)c1nc2c(N3CCOCC3)nccn2c1-c1ccc(O)cc1 [Example 149, (4-Fluorophenyl)(3-(4-hydroxyphenyl)-8-morpholinoimidazo[1,2-a]pyrazin-2-yl)methanone]",3.98
9,"O=S1(=O)Cc2cc(-c3c(-c4ccc(F)cc4)nn4c(N5CCOCC5)nccc34)ccc2N1 [Example 178, 5-[2-(4-Fluorophenyl)-7-morpholino-pyrazolo[1,5-c]pyrimidin-3-yl]-1,3-dihydro-2,1-benzothiazole 2,2-dioxide]",2
10,"COC1CCN(c2nccc3c(-c4ccc5[nH]ncc5c4)c(-c4ccccc4)nn23)CC1 [Example 234, 3-(1H-Indazol-5-yl)-7-(4-methoxy-1-piperidyl)-2-phenyl-pyrazolo[1,5-c]pyrimidine]",0.631
11,"O=c1[nH]c2ccc(-c3c(-c4ccc(F)cc4)nc4c(N5CCOCC5)nccn34)cc2o1 [Example 116, 6-(2-(4-Fluorophenyl)-8-morpholinoimidazo[1,2-a]pyrazin-3-yl)benzo[d]oxazol-2(3H)-one]",3.16
12,"O=C1Cc2cc(-c3c(-c4ccc(F)cc4)nc4c(N5CCCC5)nccn34)ccc2N1 [Example 45, 5-[2-(4-Fluorophenyl)-8-pyrrolidin-1-yl-imidazo[1,2-a]pyrazin-3-yl]indolin-2-one]",1
13,"O=c1[nH]c2ccc(-c3c(-c4ccccc4)nn4c(N5CCOCC5)nccc34)cc2s1 [Example 242, 6-(7-Morpholino-2-phenyl-pyrazolo[1,5-c]pyrimidin-3-yl)-3H-1,3-benzothiazol-2-one]",0.0501
14,"CC(=O)NC1CCN(c2nccn3c(-c4ccc(O)cc4)c(-c4ccc(Cl)cc4)nc23)CC1 [Example 93, N-[1-[2-(4-Chlorophenyl)-3-(4-hydroxyphenyl)imidazo[1,2-a]pyrazin-8-yl]-4-piperidyl]acetamide]",31.6
15,"CN(C)c1nccn2c(-c3ccc4c(c3)CC(=O)N4)c(-c3ccc(F)cc3)nc12 [Example 141, 5-[8-(Dimethylamino)-2-(4-fluorophenyl)imidazo[1,2-a]pyrazin-3-yl]indolin-2-one]",0.794
16,"O=C1CN(c2nccn3c(-c4ccc5c(c4)CC(=O)N5)c(Cc4ccccc4)nc23)CCN1 [Example 38, 5-[2-Benzyl-8-(3-oxopiperazin-1-yl)imidazo[1,2-a]pyrazin-3-yl]indolin-2-one]",1
17,"CC(=O)N1CCN(c2ncc(C)n3c(-c4ccc5c(c4)CC(=O)N5)c(Cc4ccccc4)nc23)CC1 [Example 114, 5-(8-(4-Acetylpiperazin-1-yl)-2-benzyl-5-methylimidazo[1,2-a]pyrazin-3-yl)indolin-2-one]",2
18,"O=C1CN(c2nccn3c(-c4ccc5c(c4)CC(=O)N5)c(C(=O)Nc4ccccc4)nc23)CCN1 [Example 143, 3-(2-Oxoindolin-5-yl)-8-(3-oxopiperazin-1-yl)-N-phenyl-imidazo[1,2-a]pyrazine-2-carboxamide]",20
19,"O=C1CN(c2nccn3c(-c4ccc(O)cc4)c(-c4ccc(F)cc4)nc23)CCN1 [Example 27, 4-[2-(4-Fluorophenyl)-3-(4-hydroxyphenyl)imidazo[1,2-a]pyrazin-8-yl]piperazin-2-one]",3.16
